Source: patent US20220162167A1, “SUBSTITUTED BICYCLIC AND TETRACYCLIC QUINONES AND USE THEREOF AS ANTI-CANCER AGENTS” (THE REGENTS OF THE UNIVERSITY OF MICHIGAN, priority 2019, published 2022)

Legend:
Assay type in all cases: cell-based
CCRF-CEM = test: NCI60 growth inhibition, CCRF-CEM; conditions: Leukemia
Method: (§1) Representative compounds were tested in 60 cell lines (NCI60) at the National Cancer Institute, Developmental Therapeutics Program.
(§2) Representative compounds were tested in a panel of 60 cancer cells (NCI 60) at the National Cancer Institute. Growth inhibition are shown in table 2, table 3, table 4, table 5, and FIG. 1, FIG. 2, FIG. 3, FIG. 4, FIG. 5.

HL-60(TB) = test: NCI60 growth inhibition, HL-60(TB); conditions: Leukemia
Method: as §1, §2

K-562 = test: NCI60 growth inhibition, K-562; conditions: Leukemia
Method: as §1, §2

MOLT-4 = test: NCI60 growth inhibition, MOLT-4; conditions: Leukemia
Method: as §1, §2

RPMI-8226 = test: NCI60 growth inhibition, RPMI-8226; conditions: Leukemia
Method: as §1, §2

SR = test: NCI60 growth inhibition, SR; conditions: Leukemia
Method: as §1, §2

A549/ATCC = test: NCI60 growth inhibition, A549/ATCC; conditions: Non-Small Cell Lung Cancer
Method: as §1, §2

EKVX = test: NCI60 growth inhibition, EKVX; conditions: Non-Small Cell Lung Cancer
Method: as §1, §2

HOP-62 = test: NCI60 growth inhibition, HOP-62; conditions: Non-Small Cell Lung Cancer; further: test concentration or dose not given here
Method: as §1, §2

HOP-92 = test: NCI60 growth inhibition, HOP-92; conditions: Non-Small Cell Lung Cancer
Method: as §1, §2

NCI-H226 = test: NCI60 growth inhibition, NCI-H226; conditions: Non-Small Cell Lung Cancer; further: test concentration or dose not given here
Method: as §1, §2

NCI-H23 = test: NCI60 growth inhibition, NCI-H23; conditions: Non-Small Cell Lung Cancer
Method: as §1, §2

NCI-H322M = test: NCI60 growth inhibition, NCI-H322M; conditions: Non-Small Cell Lung Cancer
Method: as §1, §2

NCI-H460 = test: NCI60 growth inhibition, NCI-H460; conditions: Non-Small Cell Lung Cancer
Method: as §1, §2

NCI-H522 = test: NCI60 growth inhibition, NCI-H522; conditions: Non-Small Cell Lung Cancer
Method: as §1, §2

COLO 205 = test: NCI60 growth inhibition, COLO 205; conditions: Colon Cancer
Method: as §1, §2

HCC-2998 = test: NCI60 growth inhibition, HCC-2998; conditions: Colon Cancer
Method: as §1, §2

HCT-116 = test: NCI60 growth inhibition, HCT-116; conditions: Colon Cancer
Method: as §1, §2

HCT-15 = test: NCI60 growth inhibition, HCT-15; conditions: Colon Cancer; further: test concentration or dose not given here
Method: as §1, §2

HT29 = test: NCI60 growth inhibition, HT29; conditions: Colon Cancer
Method: as §1, §2

KM12 = test: NCI60 growth inhibition, KM12; conditions: Colon Cancer; further: test concentration or dose not given here
Method: as §1, §2

SW-620 = test: NCI60 growth inhibition, SW-620; conditions: Colon Cancer; further: test concentration or dose not given here
Method: as §1, §2

SF-268 = test: NCI60 growth inhibition, SF-268; conditions: CNS Cancer; further: test concentration or dose not given here
Method: as §1, §2

SF-295 = test: NCI60 growth inhibition, SF-295; conditions: CNS Cancer; further: test concentration or dose not given here
Method: as §1, §2

SF-539 = test: NCI60 growth inhibition, SF-539; conditions: CNS Cancer
Method: as §1, §2

SNB-19 = test: NCI60 growth inhibition, SNB-19; conditions: CNS Cancer; further: test concentration or dose not given here
Method: as §1, §2

SNB-75 = test: NCI60 growth inhibition, SNB-75; conditions: CNS Cancer; further: test concentration or dose not given here
Method: as §1, §2

U251 = test: NCI60 growth inhibition, U251; conditions: CNS Cancer
Method: as §1, §2

LOX IMVI = test: NCI60 growth inhibition, LOX IMVI; conditions: Melanoma
Method: as §1, §2

MALME-3M = test: NCI60 growth inhibition, MALME-3M; conditions: Melanoma
Method: as §1, §2

M14 = test: NCI60 growth inhibition, M14; conditions: Melanoma
Method: as §1, §2

MDA-MB-435 = test: NCI60 growth inhibition, MDA-MB-435; conditions: Melanoma
Method: as §1, §2

SK-MEL-2 = test: NCI60 growth inhibition, SK-MEL-2; conditions: Melanoma; further: test concentration or dose not given here
Method: as §1, §2

SK-MEL-28 = test: NCI60 growth inhibition, SK-MEL-28; conditions: Melanoma
Method: as §1, §2

SK-MEL-5 = test: NCI60 growth inhibition, SK-MEL-5; conditions: Melanoma
Method: as §1, §2

UACC-257 = test: NCI60 growth inhibition, UACC-257; conditions: Melanoma; further: test concentration or dose not given here
Method: as §1, §2

UACC-62 = test: NCI60 growth inhibition, UACC-62; conditions: Melanoma; further: test concentration or dose not given here
Method: as §1, §2

IGROV1 = test: NCI60 growth inhibition, IGROV1; conditions: Ovarian Cancer
Method: as §1, §2

OVCAR-3 = test: NCI60 growth inhibition, OVCAR-3; conditions: Ovarian Cancer
Method: as §1, §2

OVCAR-4 = test: NCI60 growth inhibition, OVCAR-4; conditions: Ovarian Cancer; further: test concentration or dose not given here
Method: as §1, §2

OVCAR-5 = test: NCI60 growth inhibition, OVCAR-5; conditions: Ovarian Cancer
Method: as §1, §2

NCI/ADR-RES = test: NCI60 growth inhibition, NCI/ADR-RES; conditions: Ovarian Cancer
Method: as §1, §2

SK-OV-3 = test: NCI60 growth inhibition, SK-OV-3; conditions: Ovarian Cancer
Method: as §1, §2

786-0 = test: NCI60 growth inhibition, 786-0; conditions: Renal Cancer
Method: as §1, §2

A498 = test: NCI60 growth inhibition, A498; conditions: Renal Cancer; further: test concentration or dose not given here
Method: as §1, §2

ACHN = test: NCI60 growth inhibition, ACHN; conditions: Renal Cancer
Method: as §1, §2

CAKI-1 = test: NCI60 growth inhibition, CAKI-1; conditions: Renal Cancer; further: test concentration or dose not given here
Method: as §1, §2

RXF 393 = test: NCI60 growth inhibition, RXF 393; conditions: Renal Cancer
Method: as §1, §2

SN12C = test: NCI60 growth inhibition, SN12C; conditions: Renal Cancer
Method: as §1, §2

TK-10 = test: NCI60 growth inhibition, TK-10; conditions: Renal Cancer
Method: as §1, §2

UO-31 = test: NCI60 growth inhibition, UO-31; conditions: Renal Cancer
Method: as §1, §2

PC-3 = test: NCI60 growth inhibition, PC-3; conditions: Prostate Cancer
Method: as §1, §2

DU-145 = test: NCI60 growth inhibition, DU-145; conditions: Prostate Cancer
Method: as §1, §2

MCF7 = test: NCI60 growth inhibition, MCF7; conditions: Breast Cancer
Method: as §1, §2

MDA-MB-231/ATCC = test: NCI60 growth inhibition, MDA-MB-231/ATCC; conditions: Breast Cancer
Method: as §1, §2

HS 578T = test: NCI60 growth inhibition, HS 578T; conditions: Breast Cancer
Method: as §1, §2

T-47D = test: NCI60 growth inhibition, T-47D; conditions: Breast Cancer
Method: as §1, §2

MDA-MB-468 = test: NCI60 growth inhibition, MDA-MB-468; conditions: Breast Cancer; further: test concentration or dose not given here
Method: as §1, §2

Cc1ccc2c(n1)C(=O)C(Cl)=C(Nc1ccc(N3CCN(C)CC3)cc1)C2=O [Compound 13, 7-chloro-2-methyl-6-((4-(4-methylpiperazin-1-yl)phenyl)amino)quinoline-5,8-dione]
Growth inhibition (% control) GIPRCNT (CCRF-CEM): −6.237 % control
Growth inhibition (% control) GIPRCNT (HL-60(TB)): −46.6759 % control
Growth inhibition (% control) GIPRCNT (K-562): −12.2778 % control
Growth inhibition (% control) GIPRCNT (MOLT-4): −25.588 % control
Growth inhibition (% control) GIPRCNT (RPMI-8226): −32.551 % control
Growth inhibition (% control) GIPRCNT (SR): −5.054 % control
Growth inhibition (% control) GIPRCNT (A549/ATCC): 97.64 % control
Growth inhibition (% control) GIPRCNT (EKVX): −81.7903 % control
Growth inhibition (% control) GIPRCNT (HOP-62): 63.65 % control
Growth inhibition (% control) GIPRCNT (HOP-92): −86.301 % control
Growth inhibition (% control) GIPRCNT (NCI-H226): 105.4813 % control
Growth inhibition (% control) GIPRCNT (NCI-H23): 16.65 % control
Growth inhibition (% control) GIPRCNT (NCI-H322M): 97.35 % control
Growth inhibition (% control) GIPRCNT (NCI-H460): 97.22 % control
Growth inhibition (% control) GIPRCNT (NCI-H522): −63.7561 % control
Growth inhibition (% control) GIPRCNT (COLO 205): 82.4617 % control
Growth inhibition (% control) GIPRCNT (HCC-2998): 95.31 % control
Growth inhibition (% control) GIPRCNT (HCT-116): −64.939 % control
Growth inhibition (% control) GIPRCNT (HCT-15): 70.44 % control
Growth inhibition (% control) GIPRCNT (HT29): 66.44 % control
Growth inhibition (% control) GIPRCNT (KM12): 92.08 % control
Growth inhibition (% control) GIPRCNT (SW-620): −69.7878 % control
Growth inhibition (% control) GIPRCNT (SF-268): 77.72 % control
Growth inhibition (% control) GIPRCNT (SF-295): 99.36 % control
Growth inhibition (% control) GIPRCNT (SF-539): −24.5048 % control
Growth inhibition (% control) GIPRCNT (SNB-19): 94.6 % control
Growth inhibition (% control) GIPRCNT (SNB-75): −53.8363 % control
Growth inhibition (% control) GIPRCNT (U251): 8.466 % control
Growth inhibition (% control) GIPRCNT (LOX IMVI): −95.4404 % control
Growth inhibition (% control) GIPRCNT (MALME-3M): −75.4481 % control
Growth inhibition (% control) GIPRCNT (M14): 73.83 % control
Growth inhibition (% control) GIPRCNT (MDA-MB-435): −99.1118 % control
Growth inhibition (% control) GIPRCNT (SK-MEL-2): 68.36 % control
Growth inhibition (% control) GIPRCNT (SK-MEL-28): 30.32 % control
Growth inhibition (% control) GIPRCNT (SK-MEL-5): 10.39 % control
Growth inhibition (% control) GIPRCNT (UACC-257): 57.23 % control
Growth inhibition (% control) GIPRCNT (UACC-62): −49.3593 % control
Growth inhibition (% control) GIPRCNT (IGROV1): −83.5269 % control
Growth inhibition (% control) GIPRCNT (OVCAR-3): −100 % control
Growth inhibition (% control) GIPRCNT (OVCAR-4): −100 % control
Growth inhibition (% control) GIPRCNT (OVCAR-5): −7.548 % control
Growth inhibition (% control) GIPRCNT (NCI/ADR-RES): 27.61 % control
Growth inhibition (% control) GIPRCNT (SK-OV-3): 89.88 % control
Growth inhibition (% control) GIPRCNT (786-0): 52.18 % control
Growth inhibition (% control) GIPRCNT (A498): 100.8258 % control
Growth inhibition (% control) GIPRCNT (ACHN): −93.75 % control
Growth inhibition (% control) GIPRCNT (CAKI-1): −100 % control
Growth inhibition (% control) GIPRCNT (RXF 393): 62.78 % control
Growth inhibition (% control) GIPRCNT (SN12C): −88.5465 % control
Growth inhibition (% control) GIPRCNT (TK-10): 100.0838 % control
Growth inhibition (% control) GIPRCNT (UO-31): −97.3532 % control
Growth inhibition (% control) GIPRCNT (PC-3): 68.66 % control
Growth inhibition (% control) GIPRCNT (DU-145): −18.6864 % control
Growth inhibition (% control) GIPRCNT (MCF7): −61.9194 % control
Growth inhibition (% control) GIPRCNT (MDA-MB-231/ATCC): −62.773 % control
Growth inhibition (% control) GIPRCNT (HS 578T): 58 % control
Growth inhibition (% control) GIPRCNT (T-47D): −61.1209 % control
Growth inhibition (% control) GIPRCNT (MDA-MB-468): −84.6413 % control
